The values that follow come from PMC3445516 (PLoS ONE, 2012).

Like-named read-outs stand apart in the source and are kept apart here.

What all share (experiment): Ambit kinase profiling, competition binding
One test concerns the target T1, CDK5 (Homo sapiens, UniProt Q00535).
T1 construct: purchased Ambit Biosciences (KINOMEscan)
Here is the method: (§1) Also included in the kinase profile are four isoforms of PKC (δ, ε, η, θ) and eight isoforms of CAMKs (CAMKIα, δ, γ; CAMKIIα, β, δ, γ; CAMK4).
(§2) The global kinase profiling experiment was performed by Ambit Biosciences.

The target in another test is T2, CSNK1A1L (Homo sapiens, UniProt Q8N752).
T2 construct: purchased Ambit Biosciences (KINOMEscan)
T2 sequence (Q8N752 1-337): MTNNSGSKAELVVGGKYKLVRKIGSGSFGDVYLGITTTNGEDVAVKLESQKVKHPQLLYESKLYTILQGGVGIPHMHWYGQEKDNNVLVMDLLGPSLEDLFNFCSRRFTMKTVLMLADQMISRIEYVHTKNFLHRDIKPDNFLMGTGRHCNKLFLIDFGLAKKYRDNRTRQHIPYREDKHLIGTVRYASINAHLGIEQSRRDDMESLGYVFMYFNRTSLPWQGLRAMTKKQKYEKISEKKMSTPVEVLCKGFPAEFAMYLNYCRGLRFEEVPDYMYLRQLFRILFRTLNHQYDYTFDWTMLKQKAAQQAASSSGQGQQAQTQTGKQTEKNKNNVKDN
Here is the method: as §1, §2

The target of the next test is T3, EGFR (Homo sapiens, UniProt P00533).
T3 construct: purchased Ambit Biosciences (KINOMEscan)
Particulars: for % Competition: 10 µM. Here is the method: as §1, §2

A further test addresses T4, EGFR(L858R) (Homo sapiens, UniProt P00533, L858R).
T4 construct: purchased Ambit Biosciences (KINOMEscan)
The note with it: for % Competition: 10 µM. Here is the method: as §1, §2

A further test deals with T5, EPHA8 (Homo sapiens, UniProt P29322).
T5 construct: purchased Ambit Biosciences (KINOMEscan)
T5 sequence (P29322 28-1005): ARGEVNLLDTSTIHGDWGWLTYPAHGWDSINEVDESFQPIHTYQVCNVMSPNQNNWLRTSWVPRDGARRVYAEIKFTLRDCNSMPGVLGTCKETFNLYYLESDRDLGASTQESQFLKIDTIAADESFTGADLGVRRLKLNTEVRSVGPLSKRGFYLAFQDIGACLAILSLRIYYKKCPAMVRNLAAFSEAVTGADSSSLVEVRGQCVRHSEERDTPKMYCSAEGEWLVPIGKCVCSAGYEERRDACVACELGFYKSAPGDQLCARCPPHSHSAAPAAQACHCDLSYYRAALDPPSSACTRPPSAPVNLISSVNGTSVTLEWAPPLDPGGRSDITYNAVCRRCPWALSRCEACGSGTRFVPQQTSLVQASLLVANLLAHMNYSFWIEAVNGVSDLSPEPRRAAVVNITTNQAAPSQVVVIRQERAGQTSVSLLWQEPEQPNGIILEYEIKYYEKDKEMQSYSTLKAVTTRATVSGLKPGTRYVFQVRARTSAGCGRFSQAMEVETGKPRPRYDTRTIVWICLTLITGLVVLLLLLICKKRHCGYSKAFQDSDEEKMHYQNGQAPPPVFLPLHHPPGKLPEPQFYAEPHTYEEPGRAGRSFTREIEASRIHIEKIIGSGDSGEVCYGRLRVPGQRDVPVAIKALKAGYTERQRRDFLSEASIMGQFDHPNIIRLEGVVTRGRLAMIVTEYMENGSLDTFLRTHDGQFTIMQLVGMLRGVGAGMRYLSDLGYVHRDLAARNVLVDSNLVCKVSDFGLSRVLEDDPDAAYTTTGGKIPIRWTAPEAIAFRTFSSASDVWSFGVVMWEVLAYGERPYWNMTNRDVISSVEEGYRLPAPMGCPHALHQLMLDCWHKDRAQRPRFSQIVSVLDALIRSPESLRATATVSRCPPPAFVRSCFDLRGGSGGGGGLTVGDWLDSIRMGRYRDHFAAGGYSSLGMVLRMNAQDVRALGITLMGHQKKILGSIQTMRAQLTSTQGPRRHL
How it is done:
as §1, §2

The next test has as its target T6, ERK1 (Homo sapiens, UniProt P27361).
T6 construct: purchased Ambit Biosciences (KINOMEscan)
How it is done: as §1, §2

In another test the target is T7, LCK (Homo sapiens, UniProt P06239).
T7 construct: purchased Ambit Biosciences (KINOMEscan)
T7 sequence (P06239 whole entry): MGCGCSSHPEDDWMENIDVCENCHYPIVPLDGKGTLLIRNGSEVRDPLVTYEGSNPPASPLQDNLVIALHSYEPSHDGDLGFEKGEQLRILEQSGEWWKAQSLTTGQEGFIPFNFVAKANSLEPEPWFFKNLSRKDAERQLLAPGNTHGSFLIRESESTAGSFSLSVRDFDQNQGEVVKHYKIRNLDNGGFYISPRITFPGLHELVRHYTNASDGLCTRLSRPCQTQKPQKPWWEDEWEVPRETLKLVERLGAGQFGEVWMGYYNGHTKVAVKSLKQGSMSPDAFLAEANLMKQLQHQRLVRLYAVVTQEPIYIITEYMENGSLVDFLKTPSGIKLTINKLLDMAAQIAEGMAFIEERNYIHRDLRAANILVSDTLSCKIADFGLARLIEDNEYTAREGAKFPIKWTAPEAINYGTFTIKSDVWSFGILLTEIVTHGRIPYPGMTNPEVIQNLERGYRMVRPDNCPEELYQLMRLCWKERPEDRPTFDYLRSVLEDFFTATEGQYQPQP
Here is the method: as §1, §2

In another test the target is T8, MST4 (Homo sapiens, UniProt Q9P289).
T8 construct: purchased Ambit Biosciences (KINOMEscan)
T8 sequence (Q9P289 whole entry): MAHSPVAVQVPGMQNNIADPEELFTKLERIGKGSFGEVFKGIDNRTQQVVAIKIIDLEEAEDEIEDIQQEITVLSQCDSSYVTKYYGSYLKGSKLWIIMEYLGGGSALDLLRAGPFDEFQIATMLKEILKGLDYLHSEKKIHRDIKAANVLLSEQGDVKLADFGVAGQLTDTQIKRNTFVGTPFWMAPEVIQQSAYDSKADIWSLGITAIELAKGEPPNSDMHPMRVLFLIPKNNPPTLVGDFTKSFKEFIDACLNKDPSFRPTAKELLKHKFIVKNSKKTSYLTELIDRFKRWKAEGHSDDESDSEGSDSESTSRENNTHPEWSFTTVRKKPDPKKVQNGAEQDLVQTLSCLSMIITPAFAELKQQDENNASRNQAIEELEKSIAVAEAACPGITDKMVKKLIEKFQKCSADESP
How it is done:
as §1, §2

In the next test the target is T9, PKC η (Homo sapiens, UniProt P24723).
T9 construct: purchased Ambit Biosciences (KINOMEscan)
T9 sequence (P24723 whole entry): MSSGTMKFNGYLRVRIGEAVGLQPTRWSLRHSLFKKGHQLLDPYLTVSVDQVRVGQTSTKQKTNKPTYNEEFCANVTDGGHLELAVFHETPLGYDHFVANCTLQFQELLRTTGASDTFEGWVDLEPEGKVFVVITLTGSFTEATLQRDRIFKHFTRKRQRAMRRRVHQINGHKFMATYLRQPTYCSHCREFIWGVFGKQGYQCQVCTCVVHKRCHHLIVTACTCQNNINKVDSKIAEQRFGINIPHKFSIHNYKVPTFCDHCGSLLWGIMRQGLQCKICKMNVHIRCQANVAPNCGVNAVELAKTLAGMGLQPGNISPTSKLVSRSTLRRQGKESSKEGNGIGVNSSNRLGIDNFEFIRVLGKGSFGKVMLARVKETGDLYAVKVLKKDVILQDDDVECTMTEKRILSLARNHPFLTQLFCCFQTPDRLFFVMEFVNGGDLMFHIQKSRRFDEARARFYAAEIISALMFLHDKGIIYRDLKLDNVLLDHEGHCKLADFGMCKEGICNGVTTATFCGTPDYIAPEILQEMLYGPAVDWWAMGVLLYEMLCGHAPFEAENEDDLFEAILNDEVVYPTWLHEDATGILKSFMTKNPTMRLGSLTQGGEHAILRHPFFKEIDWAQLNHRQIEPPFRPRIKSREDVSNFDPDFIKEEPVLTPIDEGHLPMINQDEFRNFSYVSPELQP
The note with it: for competition: PKC η, 10 µM. Here is the method:
as §1, §2

A further test has as its target T10, STK16 (Homo sapiens, UniProt O75716).
T10 construct: purchased Ambit Biosciences (KINOMEscan)
Here is the method:
as §1, §2

The target of another test is T11, TNIK (Homo sapiens, UniProt Q9UKE5).
T11 construct: purchased Ambit Biosciences (KINOMEscan)
T11 sequence (Q9UKE5 whole entry): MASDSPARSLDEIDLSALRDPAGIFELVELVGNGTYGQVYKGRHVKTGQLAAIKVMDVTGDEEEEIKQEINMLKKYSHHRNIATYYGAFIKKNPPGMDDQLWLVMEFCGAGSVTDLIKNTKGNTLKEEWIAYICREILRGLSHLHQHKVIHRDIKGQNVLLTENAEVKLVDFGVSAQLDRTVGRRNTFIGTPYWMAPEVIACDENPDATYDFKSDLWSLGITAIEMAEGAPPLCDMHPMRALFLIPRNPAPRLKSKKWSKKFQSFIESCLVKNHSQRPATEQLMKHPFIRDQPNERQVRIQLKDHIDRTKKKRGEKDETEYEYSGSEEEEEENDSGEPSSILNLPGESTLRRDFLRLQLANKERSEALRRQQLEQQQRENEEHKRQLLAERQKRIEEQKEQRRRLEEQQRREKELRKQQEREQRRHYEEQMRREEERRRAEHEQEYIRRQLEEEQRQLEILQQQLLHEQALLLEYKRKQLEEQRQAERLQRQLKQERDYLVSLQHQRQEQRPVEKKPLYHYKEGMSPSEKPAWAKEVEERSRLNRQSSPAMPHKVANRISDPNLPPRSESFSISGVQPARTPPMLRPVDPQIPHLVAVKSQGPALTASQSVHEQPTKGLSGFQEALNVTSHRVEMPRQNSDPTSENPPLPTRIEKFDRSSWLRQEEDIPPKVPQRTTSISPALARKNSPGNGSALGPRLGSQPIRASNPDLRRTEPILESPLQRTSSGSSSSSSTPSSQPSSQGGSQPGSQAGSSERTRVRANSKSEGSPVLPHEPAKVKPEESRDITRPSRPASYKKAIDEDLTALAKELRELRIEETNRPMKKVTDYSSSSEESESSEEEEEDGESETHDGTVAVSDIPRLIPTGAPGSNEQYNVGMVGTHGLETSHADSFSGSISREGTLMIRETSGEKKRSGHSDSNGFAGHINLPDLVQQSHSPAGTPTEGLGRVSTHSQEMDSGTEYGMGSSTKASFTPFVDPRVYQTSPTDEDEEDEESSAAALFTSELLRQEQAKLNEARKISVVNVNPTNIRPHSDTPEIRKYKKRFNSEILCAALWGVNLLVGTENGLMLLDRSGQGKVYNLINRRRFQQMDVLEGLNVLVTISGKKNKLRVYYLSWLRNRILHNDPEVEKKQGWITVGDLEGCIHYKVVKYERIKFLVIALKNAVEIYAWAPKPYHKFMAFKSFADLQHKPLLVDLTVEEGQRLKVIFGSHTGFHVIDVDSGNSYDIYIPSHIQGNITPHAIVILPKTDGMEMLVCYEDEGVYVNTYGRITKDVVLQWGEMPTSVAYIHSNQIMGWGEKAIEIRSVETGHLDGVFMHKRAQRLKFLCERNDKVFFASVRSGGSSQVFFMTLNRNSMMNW
How it is done: as §1, §2

Test [1] concerns the target T12, TYK2 (JH2 domain-pseudokinase) (Homo sapiens, UniProt P29597).
T12 construct: TYK2 (JH2 domain-pseudokinase); purchased Ambit Biosciences (KINOMEscan)
The note with it: for % Competition: TYK2 (JH2 domain-pseudokinase), 10 µM. Here is the method:
as §1, §2

In the next test the target is T13, p38-beta (Homo sapiens, UniProt Q15759).
T13 construct: purchased Ambit Biosciences (KINOMEscan)
T13 sequence (Q15759 whole entry): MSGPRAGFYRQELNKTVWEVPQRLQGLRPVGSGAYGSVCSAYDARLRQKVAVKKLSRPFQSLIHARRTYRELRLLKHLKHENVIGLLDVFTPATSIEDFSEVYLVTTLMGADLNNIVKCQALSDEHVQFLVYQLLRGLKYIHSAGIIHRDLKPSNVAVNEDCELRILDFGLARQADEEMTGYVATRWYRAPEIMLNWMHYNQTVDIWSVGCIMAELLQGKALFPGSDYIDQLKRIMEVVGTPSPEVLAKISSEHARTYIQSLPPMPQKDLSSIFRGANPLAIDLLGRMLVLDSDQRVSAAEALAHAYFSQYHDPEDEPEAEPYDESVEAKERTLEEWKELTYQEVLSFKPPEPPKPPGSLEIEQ
How it is done:
as §1, §2

T12 sequence (P29597 556-888 limits assumed): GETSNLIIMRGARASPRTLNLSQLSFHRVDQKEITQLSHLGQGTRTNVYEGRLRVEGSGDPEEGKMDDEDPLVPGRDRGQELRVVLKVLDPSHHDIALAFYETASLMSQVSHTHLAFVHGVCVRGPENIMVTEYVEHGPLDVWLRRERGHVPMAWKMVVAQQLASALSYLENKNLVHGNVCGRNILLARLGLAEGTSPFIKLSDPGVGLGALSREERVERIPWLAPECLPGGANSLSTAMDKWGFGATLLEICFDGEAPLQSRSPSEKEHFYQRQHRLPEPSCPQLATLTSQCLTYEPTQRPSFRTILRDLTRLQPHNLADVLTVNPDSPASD
T10 sequence (O75716 whole entry): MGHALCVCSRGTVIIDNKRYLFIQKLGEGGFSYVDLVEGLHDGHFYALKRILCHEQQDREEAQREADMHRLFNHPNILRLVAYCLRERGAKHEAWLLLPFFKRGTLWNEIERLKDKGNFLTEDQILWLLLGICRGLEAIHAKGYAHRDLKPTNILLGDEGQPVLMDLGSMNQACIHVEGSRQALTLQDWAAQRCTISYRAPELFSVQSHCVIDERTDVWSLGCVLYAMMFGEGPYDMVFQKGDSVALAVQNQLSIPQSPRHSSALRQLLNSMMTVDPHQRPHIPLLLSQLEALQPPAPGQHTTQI
T6 sequence (P27361 whole entry): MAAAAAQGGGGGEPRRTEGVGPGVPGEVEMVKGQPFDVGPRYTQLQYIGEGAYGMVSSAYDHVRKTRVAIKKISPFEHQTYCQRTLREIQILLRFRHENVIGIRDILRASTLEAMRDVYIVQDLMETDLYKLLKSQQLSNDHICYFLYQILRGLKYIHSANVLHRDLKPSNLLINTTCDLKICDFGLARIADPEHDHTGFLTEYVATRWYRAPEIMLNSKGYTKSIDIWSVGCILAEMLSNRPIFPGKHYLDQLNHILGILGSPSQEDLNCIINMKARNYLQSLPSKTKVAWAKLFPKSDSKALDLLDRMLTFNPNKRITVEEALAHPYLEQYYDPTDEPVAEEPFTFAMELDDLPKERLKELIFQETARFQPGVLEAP
T1 sequence (Q00535 whole entry): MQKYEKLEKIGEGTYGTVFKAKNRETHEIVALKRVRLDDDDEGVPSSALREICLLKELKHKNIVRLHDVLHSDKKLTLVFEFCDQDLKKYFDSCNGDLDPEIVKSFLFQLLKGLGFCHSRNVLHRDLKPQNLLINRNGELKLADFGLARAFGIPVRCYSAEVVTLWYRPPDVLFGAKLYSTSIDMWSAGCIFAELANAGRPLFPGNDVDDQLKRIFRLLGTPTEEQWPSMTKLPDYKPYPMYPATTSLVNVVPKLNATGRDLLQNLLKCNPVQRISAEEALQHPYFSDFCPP

Consider `Fc1ccc(-c2c(-c3ccncc3)[nH]c3nccnc23)cc1` [Compound 122], for which the inhibition at 10 µM amounted to 92% on CDK5 (CDK5, 10 µM, read-out: % Competition); 95% at CSNK1A1L (CSNK1A1L, 10 µM, read-out: % Competition); 71% at EPHA8 (EPHA8, 10 µM, read-out: % Competition); 80% at ERK1 (ERK1, 10 µM, read-out: % Competition); 71% at LCK (LCK, 10 µM, read-out: % Competition); 97% at MST4 (MST4, 10 µM, read-out: % Competition). Moreover, the inhibition at 10 µM on STK16 (STK16, 10 µM, read-out: % Competition) stood at 96%; on TNIK (TNIK, 10 µM, read-out: % Competition), 96%; at p38-beta (10 µM, read-out: % Competition), 100%. Moreover, the “% Competition” value at EGFR was 95%; at EGFR(L858R), 98%; in test [1] it was 78%. On PKC η, this compound came in with a competition of less than 50%.

Turning to `CC(O)CNc1cc(-c2[nH]c3cccnc3c2-c2ccc(F)cc2)ccn1` (stereo not drawn) [Compound 140], the inhibition at 10 µM on CDK5 (read-out: % Competition) is less than 50%; at CSNK1A1L (read-out: % Competition) it was 86%; at EPHA8 (read-out: % Competition), less than 50%; on ERK1 (read-out: % Competition) it was less than 50%; at LCK (read-out: % Competition) it was less than 50%; on MST4 (read-out: % Competition), less than 50%. The inhibition at 10 µM at STK16 (read-out: % Competition) and at TNIK (read-out: % Competition) was less than 50% throughout. Besides, the “% Competition” value is reported as 76% on EGFR, 84% at EGFR(L858R), 92% in test [1] and 100% on p38-beta (10 µM). The compound further returned a competition at PKC η of less than 50%.

Regarding `Fc1ccc(-c2c(-c3ccncc3)[nH]c3nccnc23)cc1` [RO1155697-000-005], the inhibition at 10 µM at CDK5 (CDK5, compound concentration 10 uM, read-out: Percent Competition) was found to be 92%; at CSNK1A1L (CSNK1A1L, compound concentration 10 uM, read-out: Percent Competition), 95%; at EPHA8 (EPHA8, compound concentration 10 uM, read-out: Percent Competition) it was 71%; at ERK1 (ERK1, compound concentration 10 uM, read-out: Percent Competition), 80%; at LCK (LCK, compound concentration 10 uM, read-out: Percent Competition) it was 71%; on MST4 (MST4, compound concentration 10 uM, read-out: Percent Competition), 97%. Also, the inhibition at 10 µM at PKC η (PRKCH, compound concentration 10 uM, read-out: Percent Competition) is less than 50%; on STK16 (STK16, compound concentration 10 uM, read-out: Percent Competition) it was 96%; on TNIK (TNIK, compound concentration 10 uM, read-out: Percent Competition), 96%; on p38-beta (compound concentration 10 uM, read-out: Percent Competition), 100%. Also, the “Percent Competition” value on EGFR (compound concentration 10 uM) is 95%; on EGFR(L858R) (compound concentration 10 uM) it was 98%; in test [1] (TYK2(JH2domain-pseudokinase), compound concentration 10 uM), 78%.
